The source of these data is patent publication US9441024B2, “Glycosylated polypeptide and drug composition containing said polypeptide” (priority 2011, dated 2016).

Experiment [1] concerns growth hormone (GH) production. As to the kind of experiment: GH production suppression test with rats. It counts as in vivo, rat. The settings on record: for GH concentration in plasma / GH production suppression activity (in words): rat; for GH concentration in plasma: 1 hour before GRF, blood 5 minutes after GRF, vehicle 861; for GH: rat plasma GH concentration; for GH production suppression activity (in words): s.c., 10 or 100 nmol/kg. The source says:
As shown in Example 69, the glycosylated polypeptide of the present invention had affinity towards each receptor of SSTR. […] Increase of GH production amount into the blood is thought to cause proliferation or differentiation of cells and activation or suppression of the biosynthetic system in various organs via the paracrine effect of GH, and thereby influence biological reactions. Somatostatin released from the hypothalamus suppresses GH secretion from the anterior pituitary gland into the blood.
. Moreover, GRF (GH releasing hormone, Growth hormone releasing factor) was used as the GH release enhancer. GRF was prepared by dissolving GRF injectable solution (GRF Sumitomo 50 for injection, Lot. 2006C, from Dainippon Sumitomo Pharma Co., Ltd.) in 1 mL of water for injection (Lot. 09H18C, from Fuso Pharmaceutical Industries, Ltd.), and then diluting to 25-folds with saline to obtain 2 μg/mL. As heparin employed as the anticoagulant when collecting blood, Japanese Pharmacopeia heparin sodium injectable solution (Lot. B084, from Mochida Pharmaceutical Co., Ltd.) was used directly as stock solution.
[…]. As the control group, saline without glycosylated polypeptide was similarly administered (vehicle group). Then, i.e. between 5-6 minutes after the administration of the glycosylated form, pentobarbital sodium (somnopentyl, Lot. 0608101, from Kyoritsuseiyaku Corporation) was intraperitoneally administered as a general anesthetic with a glass syringe and an injection needle to give 50 mg/kg. […] […].
. […] By multiplying the results obtained and the dilution ratio, the GH concentration was calculated.

The test system of experiment [2] is rat gastrointestinal obstruction model. As to the kind of experiment: Gastrointestinal obstruction model: intestinal fluid weight of the jejunum. The class given is in vivo. Particulars: for Intestinal fluid weight: Table 9, rat, 40 μM solution 1 mL/kg s.c. 18 h after ligation, 1 h after administration.
From the text: Anesthesia was introduced with inhalation of 2% isoflurane and laughing gas:oxygen=7:3, and this was maintained throughout the surgery. A median incision was made in the abdomen, and the jejunum at about 10 cm from the musculus suspensorius duodeni was ligated with a surgical suture. Then, the incision site was promptly sutured, and the rats were fasted until compound administration. In the sham treatment group, ligation of the jejunum was not performed, but the treatment of suturing the incision site after a median incision was made in the abdomen was performed.
(§1) Eighteen hours after the gastrointestinal obstruction surgery, this was subcutaneously administered into the dorsal cervix at a dosage of 1 mL/kg with a glass syringe and a 25 G injection needle (all from Terumo Corporation). As the vehicle group, saline without glycosylated polypeptide was similarly administered.
One hour after compound administration, a median incision was made in the abdomen under inhalation anesthesia, and 1.5 mL of blood was collected from the abdominal vena cava. Then, the ligated jejunum on the musculus suspensorius duodeni side was resected. The fluid and blood on the jejunum surface were removed with a paper towel, nerves, blood vessels, and fat attached to the jejunum was removed, this was cut into 6 cm lengths, and wet weight was measured. This was then dried at 36 degrees for 24 hours, and dry weight was measured. The intestinal fluid weight (mg) was calculated by wet weight-dry weight.
Experiment [3] has the same test system. Kind of experiment: Gastrointestinal obstruction model: blood parameters (amylase, LDH, CPK). The class given is in vivo.
Method: This experimental line was carried out as a test line to evaluate the promotion of intestinal fluid absorption or the secretory suppressing action, using the change in the intestinal fluid weight in the jejunum after bowel obstruction as an indicator. Moreover, blood parameters of deviation enzymes amylase (pancreas), lactate dehydrogenase (LDH, liver), and creatine phosphokinase (CPK, skeletal muscle, cardiac muscle etc.) were measured as indicators of tissue disorders.
The present test was consigned to Mitsubishi Chemical Medience Corporation and carried out. […] Anesthesia was introduced with inhalation of 2% isoflurane and laughing gas:oxygen=7:3, and this was maintained throughout the surgery. A median incision was made in the abdomen, and the jejunum at about 10 cm from the musculus suspensorius duodeni was ligated with a surgical suture. Then, the incision site was promptly sutured, and the rats were fasted until compound administration. In the sham treatment group, ligation of the jejunum was not performed, but the treatment of suturing the incision site after a median incision was made in the abdomen was performed.
as §1
One hour after compound administration, a median incision was made in the abdomen under inhalation anesthesia, and 1.5 mL of blood was collected from the abdominal vena cava.
The measuring methods employed were BG5B, UV-rate, and JSCC methods, respectively.
The next experiment deals with SSTR1-SSTR5. Kind of experiment: Competitive binding assay, statements over all receptors SSTR1-SSTR5. On the set-up: species or system Human. The settings on record: range over SSTR1-SSTR5, Example 69-1.
The mark [4] stands for this setting: Table 10, blood 1 h after s.c. administration.
The mark [5] stands for this setting: blood collected one hour after compound administration, rat gastrointestinal obstruction model.

Method for SSTR1-SSTR5: Competitive binding assay was performed with the method below to calculate receptor binding affinity.
Competitive binding assay was consigned to Ricerca Biosciences, and experiment and data analysis was performed. […] The test substance was used at a concentration of 0.01 nM, 0.1 nM, 1 nM, 10 nM, 100 nM, or 1000 nM, and mixed with the membrane sample into a reaction solution. The incubation condition of the reaction solution was at 25° C. for 4 hours for SSTR2 and at 25° C. for 2 hours for SSTR1, SSTR3, SSTR4, and SSTR5.

With 29C(disialo)-SRIF28 [Example 13], the “GH concentration in plasma” value in experiment [1] (subcutaneous 10 nmol/kg) turned out to be 497 ng/mL; in experiment [1] (subcutaneous 100 nmol/kg) it was 88.5 ng/mL.
Molecule `C[C@@H](O)[C@@H]1NC(=O)[C@H](CCCCN)NC(=O)[C@@H](Cc2c[nH]c3ccccc23)NC(=O)[C@H](Cc2ccccc2)NC(=O)[C@@H](NC(=O)[C@H](N)Cc2ccccc2)CSSC[C@@H](C(=O)N[C@H](CO)[C@@H](C)O)NC1=O` [Octreotide] came in with an Intestinal fluid weight in experiment [2] of 693 ± 48 mg. In experiment [3] (setting [4]), the “Amylase activity compared to the vehicle (in words)” value is given as “equivalent to the vehicle” and the “LDH activity compared to the vehicle (in words)” value is “low value compared to the vehicle”. In experiment [3] (setting [5]), the “Amylase (IU/L)” value was determined as 1732 ± 774 IU/L, the “CPK (IU/L)” value is given as 472 ± 215 IU/L and the “LDH (IU/L)” value is given as 269 ± 141 IU/L.
As to A9C(disialo)-SRIF28 [Example 3], the “GH” value in experiment [1] (dose 1 nmol/kg) is listed as 577 ng/mL; in experiment [1] (dose 10 nmol/kg) it was 20 ng/mL.
As to E12C(disialo)-SRIF28 [Example 4], the “GH” value in experiment [1] (dose 10 nmol/kg) is 10 ng/mL.
Regarding K14C(disialo)-SRIF28 [Example 6], the “GH” value in experiment [1] (dose 10 nmol/kg) came to 55 ng/mL. In addition, the “GH production suppression activity (in words)” value in experiment [1] is recorded as “showed GH production suppression activity”.
Regarding N5C(disialo)-SRIF28 [Example 2], the “GH” value was found to be 969 ng/mL in experiment [1] (dose 1 nmol/kg) and 12 ng/mL in experiment [1] (dose 10 nmol/kg).
With N19C(disialo)-SRIF28 [Example 10], the entries for the “GH concentration in plasma” value in experiment [1] (subcutaneous 10 nmol/kg) and in experiment [1] (subcutaneous 100 nmol/kg) were 563 ng/mL and 1.5 ng/mL, respectively.
In the case of R13C(disialo)-SRIF28 [Example 5], in experiment [1] (dose 10 nmol/kg), the “GH” value is given as 136 ng/mL. Further, the “GH production suppression activity (in words)” value in experiment [1] was “showed GH production suppression activity”.
In the case of S1-2C(asialo)-SRIF28 [Example 28], the “GH” value stood at 997 ng/mL in experiment [1] (dose 3 nmol/kg) and 175 ng/mL in experiment [1] (dose 10 nmol/kg). Besides, the Intestinal fluid weight in experiment [2] is recorded as 566 ± 34 mg. Moreover, the “Intestinal fluid weight compared to the vehicle (in words)” value in experiment [2] (text on Table 9) is recorded as “increase in the intestinal fluid weight compared to the vehicle”. The “Affinity towards SSTR1-SSTR5, times higher than S1C(disialo)-SRIF28” value in the experiment with SSTR1-SSTR5 is 1.7-2.9 folds.
For S1C(asialo)-SRIF28 [Example 27], the figures for the “GH” value in experiment [1] (dose 1 nmol/kg), in experiment [1] (dose 3 nmol/kg) and in experiment [1] (dose 10 nmol/kg) were 879 ng/mL, 515 ng/mL and 146 ng/mL, respectively.
In the case of S1C(disialo(Bn))-SRIF28 [Example 61], the “GH” value in experiment [1] (dose 10 nmol/kg) amounted to 49 ng/mL.
Same read-out and setting: next, S1C(disialo(amide))-SRIF28 [Example 60]: 14 ng/mL.
Consider “S1C(disialo(aminoethylamide))-SRIF28 [Example 59]”, for which the “GH” value in experiment [1] (dose 10 nmol/kg) is given as 314 ng/mL.
Take “S1C(disialo)-D-Trp22-SRIF28 [Example 15]”: the “GH” value in experiment [1] (dose 0.3 nmol/kg) was 986 ng/mL; in experiment [1] (dose 1 nmol/kg) it was 335 ng/mL; in experiment [1] (dose 3 nmol/kg), 50 ng/mL; in experiment [1] (dose 10 nmol/kg), 6 ng/mL; in experiment [1] (dose 30 nmol/kg) it was 2 ng/mL.
As to S1C(monosialo)-SRIF28 [Example 26], the “GH” value in experiment [1] (dose 10 nmol/kg) was found to be 47 ng/mL.
